Test results published in patent US20230272464A1, “MODIFIED NUCLEOTIDES AND METHODS FOR DNA AND RNA POLYMERIZATION AND SEQUENCING” (SeNA Research, Incorporated, priority 2019, published 2023).

Assays:
Type in all cases: biochemical
DNA polymerase = DNA polymerase (Escherichia coli, UniProt P00582); test: Misincorporation of 2-Se-TTP: extension with each dNTP except dCTP; conditions: dCTP not present; up to 30 minutes
Experimental: Experiments to examine the misincorporation of 2-Se-TTP were conducted as follows. Broadly, enzymatic extension reactions were performed using each naturally occurring dNTP except dCTP, knowing that misincorporations of TTP in place of dCTP are commonly the cause of decreased fidelity in DNA replications.

[1] = target: Klenow fragment of DNA polymerase I (Escherichia coli, UniProt P00582); test: Polymerization using TTP or 2-Se-TTP (denatured PAGE)
Source text: The 30-nt DNA products made from the polymerization using TTP and 2-Se-TTP refer to full-length product in FIGS. 2B and 2C, respectively. […] Results of thermal dynamic calculation (FIG. 18) are consistent with the denatured PAGE. The initial reaction rate ratio (TTP vs 2-Se-TTP) was around 1.24.

[2] = PCR of two target fragments with added 2-Se-TTP (agarose gel); conditions: target fragments 268bp, 405bp; 2-Se-TTP additionally added
Source text: No bands were found in two blank groups. Thus, incorporation of 2-Se-TTP can effectively reduce the non-specific bands in PCR.

Taq DNA polymerase = Taq DNA polymerase (Thermus aquaticus, UniProt P19821); test: PCR with dNTPαS I: suppression of nonspecific product
Source text: Compared to Bst DNA polymerase, Taq DNA polymerase is used much more widely, such as in polymerase chain reaction (PCR).
To test universality of suppression effect of dNTPαS I on nonspecific product, we checked 5 new pairs of primers (primer pair a, b, c, d, e) and 3 types of templates (plasmid, total human cDNA and human genome) with native dNTPs or S-modified dNTPs (FIG. 13). […] Further, S-dNTP can inhibit nonspecific amplification and increase specific product when amplifying simple plasmid template (FIG. 13B). Furthermore, when amplifying complex template (cDNA or genome), reactions using S-dNTP could exact specific product which can not be synthesized using all native dNTPs (FIG. 13B).

[3] = plasmid and total cDNA templates

Taq DNA polymerase, sequence (P19821 whole entry): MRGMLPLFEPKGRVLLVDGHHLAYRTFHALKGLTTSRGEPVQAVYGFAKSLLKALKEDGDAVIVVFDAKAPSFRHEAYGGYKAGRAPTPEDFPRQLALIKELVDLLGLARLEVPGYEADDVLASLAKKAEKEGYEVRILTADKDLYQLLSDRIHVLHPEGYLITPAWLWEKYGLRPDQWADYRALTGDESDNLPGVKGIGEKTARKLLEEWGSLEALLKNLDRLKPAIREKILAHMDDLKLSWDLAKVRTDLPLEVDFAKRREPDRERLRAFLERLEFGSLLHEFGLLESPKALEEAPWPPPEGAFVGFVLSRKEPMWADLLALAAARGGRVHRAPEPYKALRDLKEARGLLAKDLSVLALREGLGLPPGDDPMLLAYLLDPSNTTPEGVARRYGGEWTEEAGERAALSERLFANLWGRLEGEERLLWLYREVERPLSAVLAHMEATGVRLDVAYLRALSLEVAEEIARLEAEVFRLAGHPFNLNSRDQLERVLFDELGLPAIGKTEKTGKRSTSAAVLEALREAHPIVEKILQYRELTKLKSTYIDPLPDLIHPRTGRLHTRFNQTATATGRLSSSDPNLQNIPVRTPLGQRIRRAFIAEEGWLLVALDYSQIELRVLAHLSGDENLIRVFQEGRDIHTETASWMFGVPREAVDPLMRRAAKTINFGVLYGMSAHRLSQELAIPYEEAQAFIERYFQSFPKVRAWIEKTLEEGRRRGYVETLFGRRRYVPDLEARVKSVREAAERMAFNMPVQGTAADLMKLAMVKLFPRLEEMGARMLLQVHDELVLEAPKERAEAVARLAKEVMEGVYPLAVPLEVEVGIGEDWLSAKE
Klenow fragment of DNA polymerase I, sequence (P00582 324-928): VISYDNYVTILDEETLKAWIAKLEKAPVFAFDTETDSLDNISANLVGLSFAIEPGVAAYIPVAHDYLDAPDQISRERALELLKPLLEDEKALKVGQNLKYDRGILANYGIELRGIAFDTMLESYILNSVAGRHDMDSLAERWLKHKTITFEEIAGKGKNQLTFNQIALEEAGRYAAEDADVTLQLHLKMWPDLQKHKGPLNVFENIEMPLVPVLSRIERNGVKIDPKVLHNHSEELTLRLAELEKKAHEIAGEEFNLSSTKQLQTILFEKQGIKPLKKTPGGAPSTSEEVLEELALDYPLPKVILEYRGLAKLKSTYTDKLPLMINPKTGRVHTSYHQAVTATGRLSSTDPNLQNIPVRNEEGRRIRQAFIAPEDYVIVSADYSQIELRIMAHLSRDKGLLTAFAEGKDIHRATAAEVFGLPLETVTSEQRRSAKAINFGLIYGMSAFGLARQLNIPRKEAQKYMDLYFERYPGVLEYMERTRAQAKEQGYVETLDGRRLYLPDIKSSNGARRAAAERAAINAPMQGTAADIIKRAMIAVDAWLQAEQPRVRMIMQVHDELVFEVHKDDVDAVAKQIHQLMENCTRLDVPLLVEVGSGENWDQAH
DNA polymerase, sequence (P00582 324-928): as above

Row | Compound | misincorporation in place of dCTP (full-length product) (DNA polymerase) | suppression of nonspecific product in PCR (Taq DNA polymerase; [3]) | other results
1 | Cc1cn([C@H]2C[C@H](O)[C@@H](COP(=O)(O)OP(=O)(O)OP(=O)(O)O)O2)c(=[Se])[nH]c1=O [Compound 2-Se-TTP, 2-Se-dTTP] | little to no full-length product |  | initial reaction rate ratio (TTP vs 2-Se-TTP) ([1]; Klenow fragment): around 1.24; recognition by the Klenow fragment ([1]; compared with TTP): relatively well recognized; bands in PCR (nonspecific amplification) [2]: clean and specific bands
2 | Nc1ccn([C@H]2C[C@H](O)[C@@H](COP(O)(=S)OP(=O)(O)OP(=O)(O)O)O2)c(=O)n1 (some centres unmarked) [S-dCTP] |  |  | suppression of nonspecific product in PCR (Taq DNA polymerase; 5 primer pairs, plasmid, total human cDNA and human genome templates): nearly completely suppressed
3 | Cc1cn([C@H]2C[C@H](O)[C@@H](COP(=O)(O)OP(=O)(O)OP(=O)(O)O)O2)c(=O)[nH]c1=O [TTP, reference compound] | incorporated into the DNA primer sequence in a significant amount |  | 
4 | Nc1ccn([C@H]2C[C@H](O)[C@@H](COP(O)(=S)OP(=O)(O)OP(=O)(O)O)O2)c(=O)n1 (some centres unmarked) [dCTPαS I] |  | suppressed nonspecific product nearly completely | 
5 | Nc1nc2c(ncn2C2CC(O)C(COP(O)(=[Se])OP(=O)(O)OP(=O)(O)O)O2)c(=O)[nH]1 (centres unmarked) [dGTPαSe I] |  | suppressed nonspecific product nearly completely | 
